Data on 7 molecules can be found in patent publication US20250163387A1, “HUMAN PITUITARY NEUROENDOCRINE TUMOR ORGANOIDS AND METHODS OF MAKING AND USING THE SAME” (ARIZONA BOARD OF REGENTS OF THE UNIVERSITY OF ARIZONA, A …, priority 2022, published 2025).

The test system of assay [1] is SSTR2. Description: Differential expression of SSTR2 in iPSC generated pituitary tumor organoids. Format: cell-based, human. The settings on record: for effect on relacorilant stimulated SSTR2: iPSC organoids; for effect of pretreatment on Mifepristone-induced SSTR2 expression / differential expression of SSTR2: iPSC^ctrl organoids; for effect of pretreatment on Mifepristone-induced SSTR2 expression: GANT 5 uM, Keto 10 uM; for differential expression of SSTR2: drug alone (Mife 500 nM, GANT 5 uM, Keto 10 uM, Dexa 100 nM).

Assay [2] concerns SSTR5. Description: Differential expression of SSTR5 in iPSC generated pituitary tumor organoids. Format: cell-based, human. The settings on record: for effect on relacorilant stimulated SSTR5: iPSC organoids; for effect of pretreatment on Mifepristone-induced SSTR5 expression / differential expression of SSTR5: iPSC^ctrl organoids; for effect of pretreatment on Mifepristone-induced SSTR5 expression: GANT 5 uM, Keto 10 uM; for differential expression of SSTR5: drug alone (Mife 500 nM, GANT 5 uM, Keto 10 uM, Dexa 100 nM).

Assay [3] concerns transcriptional regulation of POMC by Gli1. Put plainly: Gene ChIP assay in hPITO cultures expressing USP8 and USP48 mutations. Format: cell-based, human.
Assay [4] relates to hPITO35. The settings on record: for Dose response (cell viability): organoid 35, compared to Cabergoline. Here is the method:
(§1) Organoids were grown in Matrigel™ domes within 96-well round-bottom culture plates. Recombinant human SHH was removed from the pituitary organoid growth media, 24 hrs. prior to drug treatment. Organoids were treated with either vehicle (DMSO), cabergoline (Selleckchem S5842), ketoconazole (Selleckchem S1353), roscovitine (Selleckchem S1153), GANT61 (Stemcell Technologies 73692), pasireotide (TargetMol TP2207), mifeprostone (Selleckchem S2606), etomidate (Selleckchem S1329), mitotane (Selleckchem S1732), metyropane (Selleckchem S5416), or osilodrostat (Selleckchem S7456) at concentrations of 0, 1, 10, 100, 1000, and 10000 nM for 72 hours. Percent cell viability was measured using an MTS assay (Promega G3580). Absorbance was measured at 490 nm and normalized to the vehicle. Concentrations were plotted in a logarithmic scale, and a nonlinear dose-response curve regression was calculated using GraphPad Prism. An IC50 value for each drug treatment was determined based on the dose response curve using GraphPad Prism analysis software.

Assay [5] concerns hPITO34. The procedure: as §1
The test system of assay [6] is hPITO33. Description: Drug dose response, MTS cell viability assay. The format is cell-based, human. In general terms: Tetrazolium assays rely on reduction of a dye to a coloured formazan, in cell work by metabolically active cells.
Assay [7] concerns iPSC^USP48MV organoids. Description: Proliferation by EdU uptake. The note with it: 100 nM. Format: cell-based, human. The procedure: (§2) Organoids were immunostained using published protocols by our laboratory. Proliferation was measured by using 5-ethynyl-2'-deoxyuridine (EdU) incorporation according to the Manufacturer's protocol (Click-IT EdU Alexa Fluor 555 Imaging Kit, Thermo Fisher Scientific C10338). Costaining was performed by blocking fixed organoids with 2% donkey serum (Jackson Immuno Research, #017-000-121) diluted in 0.01% PBST for 1 hr. at room temperature. Organoids were then incubated overnight at 4° C. with primary antibodies followed by secondary antibodies and Hoechst (Thermo Fisher Scientific H1399, 1:1000 in 0.01% PBST) for 1 hr at room temperature. Human specific primary antibodies used included: rabbit anti-ACTH (Thermo Fisher Scientific 701293, 1:250), rabbit anti-Synaptophysin (Thermo Fisher Scientific PA5-27286, 1:100), […] (Thermo Fisher Scientific PA5-98650, 1:50), rabbit anti-LH (Thermo Fisher Scientific PA5-102674, 1:100), mouse anti-FSH (Thermo Fisher Scientific MIF2709, 1:100), mouse anti-PRL (Thermo Fisher Scientific CF500720, 1:100), Alexa Flour conjugated GH (NB500-364AF647, 1:100) and mouse anti-CAM5.2 (SIGMA […]-95, 1:250). The secondary antibodies used included Alexa Fluor 488 Donkey Anti Rabbit IgG (H+L) (Thermo Fisher Scientific A21206, 1:100) or Alexa Fluor 647 Donkey Anti Mouse IgG (H+L) (Thermo Fisher Scientific A31571, 1:100). Organoids were visualized and images acquired by confocal microscopy using the Nikon CrestV2 Spinning Disk. Fluorescence intensity and percentage of EdU positive cells of total cells, were calculated using Nikon Elements Software (Version 5.21.05).

Assay [8] relates to iPSC^ctrl organoids. Description: Proliferation by EdU uptake. The format is cell-based, human. The settings on record: 100 nM. Here is the method: as §2
The subject of assay [9] is iPSC^USP48MV organoids. Description: ACTH secretion ELISA of conditioned media. The format is cell-based, human. The settings on record: for effect on ACTH secretion in response to Mifepristone: 100 nM with Mife 500 nM. Here is the method: (§3) Concentration of secreted ACTH in conditioned media that was collected from organoid cultures was measured using the Human ACTH ELISA Kit (Novus Biologicals, NBP2-66401) according to the manufacturer's protocol. The enzyme-substrate reaction was measured spectrophotometrically (BioTek Gen5 Micro Plate Reader Version 3.11) at a wavelength of 450 nm and the ACTH concentration (pg/mL) was interpolated using a standard curve with a 4-parameter logistic regression analysis using GraphPad Prism (Version 9.2.0).
A general note: An ELISA detects its analyte on a solid surface through an enzyme-linked reagent.

Assay [10] has as its system iPSC^ctrl organoids. Description: ACTH secretion ELISA of conditioned media. The format is cell-based, human. The settings on record: for effect on ACTH secretion in response to Mifepristone: 100 nM with Mife 500 nM. The procedure: as §3
Assay [11] concerns hPITO37. Put plainly: Spectral flow cytometry (SSTR2, SSTR5, ACTH, zombie). Format: cell-based, human. The note with it: Pas 837.5 nM, Mife 2.85 nM. Here is the method: The multicolor flow cytometry panel was designed using the Cytek®Full Spectrum Viewer online tool to calculate the similarity index. The organoids were harvested in cold SFDM media and centrifuged at 400×g for 5 minutes. Supernatant was discarded and organoids were dissociated to single cells using Accutase® (Thermo Fisher Scientific 00-4555-56). The enzymatic reaction was stopped using prewarmed DPBS and cells were then centrifuged at 400×g for 5 minutes and incubated with fluorochrome-conjugated/unconjugated primary surface or cytoplasmic antibodies at 4° C. for 30 minutes. Cells were then washed with Cell Staining Buffer (BioLegend #420-201) and incubated with secondary antibodies at 4° C. for 30 minutes. Cells were fixed using Cytofix/Cytoperm™ Fixation/Permeabilization Solution (BD Biosciences #554714) at 4° C. for 20 minutes, followed by washing with Fixation/Permeabilization wash buffer. Cells were then labeled with fluorochrome-conjugated/unconjugated intracellular primary antibodies at 4° C. for 30 minutes, washed and incubated with secondary antibodies at 4° C. for 30 minutes. Cells resuspended in cell staining buffer and fluorescence measured using the Cytek Aurora 5 Laser Spectral Flow Cytometer. An unstained cell sample was fixed and used as reference control. UltraComp eBeads™, Compensation Beads (Thermo Fisher Scientific #01-2222-42) were stained with the individual antibodies and used as single stain control for compensation and gating. Data was acquired using the Cytek™ Aurora and analyzed using Cytobank software (Beckman Coulter, Indianapolis, IN).

For assay [12] the following is noted: monotherapy; cited from earlier work.
Assay [13] deals with SSTR5 (Homo sapiens, UniProt P35346). The settings on record: cited from earlier work.
Chain of SSTR5 (Homo sapiens, UniProt P35346) (P35346 whole entry): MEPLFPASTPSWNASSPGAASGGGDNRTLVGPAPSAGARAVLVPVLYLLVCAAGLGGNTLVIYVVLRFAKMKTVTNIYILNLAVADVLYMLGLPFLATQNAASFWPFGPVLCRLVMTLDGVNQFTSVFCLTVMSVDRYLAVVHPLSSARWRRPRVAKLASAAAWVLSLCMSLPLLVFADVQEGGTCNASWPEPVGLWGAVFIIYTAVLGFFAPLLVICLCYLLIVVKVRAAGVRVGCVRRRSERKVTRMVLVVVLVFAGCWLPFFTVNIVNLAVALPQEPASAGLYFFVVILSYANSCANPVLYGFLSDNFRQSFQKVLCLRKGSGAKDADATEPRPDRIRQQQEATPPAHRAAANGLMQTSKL
For assay [14], the system named is hPITOs generated from CD patients. Put plainly: High-throughput drug screen, MTS assay. The format is cell-based, human. The note with it: 1 uM, 72 hrs. Here is the method:
Patient adenoma-derived pituitary organoids were grown in 96-well plates and treated with 147 small molecules taken from the NCI AOD9 compound library for 72 hrs. (https://dtp.cancer.gov/organization/dscb/obtaining/available_plates.html). Drugs were diluted from 10 mM DMSO stock plates into 100 uM DMSO working stocks with a final concentration of 1 uM. All vehicle controls were treated with 0.1% DMSO. Organoid proliferation was measured using CellTiter 96® AQueous One Solution Cell Proliferation Assay kit (MTS, Promega, G3582) according to the manufacturer's instruction. Organoid death was calculated based on the absorbance readings at 490 nm, collected from the MTS assay relative to the vehicle controls. Drug screens were performed with biological replicates in same screen. Drugs were selected based on their ability to target key signaling pathways and clinical relevance to the treatment. Drug sensitivity is represented by cell viability and is significant at <0.5 suppressive effect of the drugs. The percent cell viability relative to the vehicle control was calculated. Correlation coefficient across each organoid were calculated using Pearson method to assess confidence in replication. Variance Component was detected for each drug across all organoids. A random effect model was run with a single random factor for each drug and estimated variance was calculated by rejecting the null hypothesis that there isn't variation among samples. The drug responses were grouped by variance factor large (vc>100), median (100>vc>50), and small (vc<50). Heatmap was used to display the differential responses in cell viability for the drugs.
Tumor recurrence can occur in as many as 30-50% of CD patients after successful surgical treatment. Unfortunately, bilateral adrenalectomy is the chosen surgical treatment for patients with persistent CD [35]. Bilateral adrenalectomy leads to the increased risk for development of Nelson's syndrome (progressive hyperpigmentation due to ACTH secretion and expansion of the residual pituitary tumor). Although the risk of developing Nelson's syndrome following adrenalectomy can be reduced by 50% with stereotactic radiotherapy, there is a need to develop medical therapies that directly target the pituitary adenoma. Thus, we established a high-throughput drug screening assay using patient-derived pituitary organoids. […] The replicates behaved consistently with the drug response with the correlation scores of >0.8 for these samples (FIG. 3a). We estimated the variance component for each drug across all organoids. […] The drug responses were grouped by variance factor large, median, and small. The larger the variance the more variable is the drug response across the organoids. […]

Setting [15] is: greater magnitude than Octreotide plus relacorilant.

Each structure is given as a SMILES string. pIC50: −log10 of the molar value. Numbered stars: 1 amine (or outer) side, 2 acyl side, 3 side chain; on linkers, the order of the positions; unused ones are H or OH. Square brackets hold non-standard residues; d marks the D form. Side chains are listed from the residue outwards. Peptide text beside a SMILES is read from it. * marks the point of attachment. Ethylenediamine = C(CN[*:2])N[*:1]; Hyp = O=C(O)[C@@H]1C[C@@H](O)CN1; Phg = N[C@H](C(=O)O)c1ccccc1; CO = O=C([*:1])[*:2]; Bn = c1ccc(C*)cc1

`CC(=O)N1CCN(c2ccc(OCC3COC(Cn4ccnc4)(c4ccc(Cl)cc4Cl)O3)cc2)CC1` (centres unmarked) [ketoconazole]: in assay [1], the “effect on relacorilant stimulated SSTR2” value is on record as “failed to block”, the “effect of pretreatment on Mifepristone-induced SSTR2 expression” value is “no effect” and the “differential expression of SSTR2” value is “no effect”. Moreover, in assay [2], the “effect on relacorilant stimulated SSTR5” value is “failed to block”, the “effect of pretreatment on Mifepristone-induced SSTR5 expression” value is listed as “no effect” and the “differential expression of SSTR5” value is on record as “no effect”.

In the case of `CN(C)c1ccccc1CN1CCCN(Cc2ccccc2N(C)C)C1c1ccncc1` [GANT61], in assay [1], the “effect on relacorilant stimulated SSTR2” value is recorded as “inhibited”, the “effect of pretreatment on Mifepristone-induced SSTR2 expression” value is reported as “reduced” and the “differential expression of SSTR2” value is “no effect”. In assay [2], the “effect on relacorilant stimulated SSTR5” value is “inhibited”, the “effect of pretreatment on Mifepristone-induced SSTR5 expression” value was “reduced” and the “differential expression of SSTR5” value is recorded as “no effect”. In addition, the “transcriptional regulation of POMC by Gli1 (ChIP)” value in assay [3] was “blocked”.

Take `CC(C)(C(=O)c1cccnc1)c1cccnc1` [Metyrapone]: the “Dose response (cell viability)” value in [4] is reported as “better responses than Cabergoline”.

As to `N#Cc1ccc([C@H]2CCc3cncn32)c(F)c1` [osilodrostat], the “Dose response (cell viability)” value in assay [4] is listed as “better responses than Cabergoline”.

Turning to `NCCCC[C@@H]1NC(=O)[C@@H](Cc2c[nH]c3ccccc23)NC(=O)[C@H](c2ccccc2)NC(=O)[C@@H]2C[C@@H](OC(=O)NCCN)CN2C(=O)[C@H](Cc2ccccc2)NC(=O)[C@H](Cc2ccc(OCc3ccccc3)cc2)NC1=O` [Pasireotide] (cyclo([Hyp]([CO-Ethylenediamine])[Phg][dW]KY(Bn)F)), the pIC50 in assay [5] (hPITO34, 72 hours, MTS cell viability) was 8.21; in [4] (hPITO35, 72 hours, MTS cell viability), 6.00; in [6] (hPITO33, 72 hours, MTS cell viability), 5.92. Also, the “effect of pretreatment on the proliferative response to Mife” value in assay [7] and in [8] was “no effect” throughout. Besides, the “effect on ACTH secretion in response to Mifepristone” value in [9] and in assay [10] was “significantly reduced” throughout. Further, the “hormone (ACTH) secretion in combination with relacorilant” value in [9] (setting [15]) and in assay [10] (setting [15]) was “reduced hormone secretion” each time. Besides, the “effect of pretreatment on Mife-increased number of ACTH expressing cells” value in [11] is reported as “not inhibited”. Moreover, in [12], the “patients with CD in whom cortisol is normalized” value is reported as “up to 42%”. Further, in assay [13], the “binding to SSTR5” value is listed as “high-affinity binding”.

Regarding `C[C@@H](O)[C@@H]1NC(=O)[C@H](CCCCN)NC(=O)[C@@H](Cc2c[nH]c3ccccc23)NC(=O)[C@H](Cc2ccccc2)NC(=O)[C@@H](NC(=O)[C@H](N)Cc2ccccc2)CSSC[C@@H](C(=O)N[C@H](CO)[C@@H](C)O)NC1=O` [Octreotide], the “effect of pretreatment on the proliferative response to Mife” value in [7] and in [8] was “inhibited” each time. Moreover, the “effect on ACTH secretion in response to Mifepristone” value in [9] and in [10] was “significantly reduced” in each case.

In the case of `C=CCN1C[C@H](C(=O)N(CCCN(C)C)C(=O)NCC)C[C@@H]2c3cccc4[nH]cc(c34)C[C@H]21` [cabergoline], the “Dose response (cell viability)” value in [5] (organoid 34, compared to Metyrapone and osilodrostat) is reported as “better response at lower dose”; in assay [6] (organoid 33, compared to Metyrapone and osilodrostat), “better response at lower dose”. For the same molecule, the “response of the adenoma cells within the organoids” value in [14] (hPITO7, 10 and 25) was about 0%; in [14] (hPITO34 and hPITO35), 50%.

Broadly, the pIC50 is −log10 of the IC50, conventionally taken in molar units.
